Test results from patent US10519154B2, “7-substituted 1-pyridyl-naphthyridine-3-carboxylic acid amides and use thereof” (Bayer Pharma Aktiengesellschaft, priority 2016, dated 2019).
pEC50: −log10 of the molar value.

Biological target: T1, human M2 receptor (Homo sapiens, UniProt P08172)
T1 sequence (P08172 1-466): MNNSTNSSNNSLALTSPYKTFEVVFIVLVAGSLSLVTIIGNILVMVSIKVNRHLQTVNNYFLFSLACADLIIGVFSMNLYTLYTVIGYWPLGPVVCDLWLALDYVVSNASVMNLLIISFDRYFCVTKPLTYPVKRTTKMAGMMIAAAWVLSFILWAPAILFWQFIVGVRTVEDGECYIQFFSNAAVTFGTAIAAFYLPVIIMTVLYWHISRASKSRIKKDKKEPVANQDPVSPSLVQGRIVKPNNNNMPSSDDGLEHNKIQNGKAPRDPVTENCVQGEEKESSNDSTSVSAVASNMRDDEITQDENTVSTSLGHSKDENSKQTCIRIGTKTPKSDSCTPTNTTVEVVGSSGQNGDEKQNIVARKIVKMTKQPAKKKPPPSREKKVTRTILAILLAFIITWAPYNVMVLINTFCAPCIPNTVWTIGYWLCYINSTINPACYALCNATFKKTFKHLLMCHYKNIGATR
Assay: Functional M2-GIRK1/4 activation test: allosteric potency (EC50) and efficiency
Settings: for pEC50: Receptor activity EC50, CHO-DUKX-M2-GIRK cells, acetylcholine at EC20, in some cases mean of two or more determinations; for Emax: read-out: Efficiency, boosting of the acetylcholine effect at EC20 acetylcholine concentration; for Emax / Efficiency: CHO-DUKX-M2-GIRK cells; for Efficiency: boosting of the acetylcholine effect at EC20 acetylcholine concentration

| SMILES | pEC50 | Emax [%] | Efficiency [%] |
| --- | --- | --- | --- |
| O=C(N[C@H](C1CC1)C(F)(F)F)c1cn(-c2ncc(F)cc2F)c2nc(N3CCCN(CCO)C3=O)ccc2c1=O [Example 122, N-[(1R)-1-Cyclopropyl-2,2,2-trifluoroethyl]-1-(3,5-difluoropyridin-2-yl)-7-[3-(2-hydroxyethyl)-2-oxotetrahydropyrimidin-1(2H)-yl]-4-oxo-1,4-dihydro-1,8-naphthyridine-3-carboxamide] | 6.66 | 92 | – |
| CC[C@H](NC(=O)c1cn(-c2ncc(F)cc2F)c2nc(N3C(=O)C(C)(C)C(O)C34CC4)ccc2c1=O)C(F)(F)F (stereo partly drawn) [Example 31, 1-(3,5-Difluoropyridin-2-yl)-7-[7-hydroxy-6,6-dimethyl-5-oxo-4-azaspiro[2.4]hept-4-yl]-4-oxo-N-[(2S)-1,1,1-trifluorobutan-2-yl]-1,4-dihydro-1,8-naphthyridine-3-carboxamide] | 6.19 | 88.5 | – |
| O=C(NC(c1ccccc1Cl)C(F)(F)F)c1cn(-c2ncc(F)cc2F)c2nc(N3CCNC3=O)ccc2c1=O (single isomer, unassigned) [Example 149, N-[1-(2-Chlorophenyl)-2,2,2-trifluoroethyl]-1-(3,5-difluoropyridin-2-yl)-4-oxo-7-(2-oxoimidazolidin-1-yl)-1,4-dihydro-1,8-naphthyridine-3-carboxamide] | 7.49 | – | 100.00 |
| CC(C)C[C@@H](NC(=O)c1cn(-c2ncc(F)cc2F)c2nc(N3CCNC3=O)ccc2c1=O)C(F)(F)F [Example 156, 1-(3,5-Difluoropyridin-2-yl)-4-oxo-7-(2-oxoimidazolidin-1-yl)-N-[-(2R)-1,1,1-trifluoro-4-methylpentan-2-yl]-1,4-dihydro-1,8-naphthyridine-3-carboxamide] | 7.44 | 100 | – |
| CC(NC(=O)c1cn(-c2ncc(F)cc2F)c2nc(N3CCC(O)(CO)CC3)ccc2c1=O)C(F)(F)C(F)(F)F (single isomer, unassigned) [Example 177, 1-(3,5-Difluoropyridin-2-yl)-7-[4-hydroxy-4-(hydroxymethyl)piperidin-1-yl]-4-oxo-N-(3,3,4,4,4-pentafluorobutan-2-yl)-1,4-dihydro-1,8-naphthyridine-3-carboxamide] | 7.42 | 100 | – |
| CC[C@H](NC(=O)c1cn(-c2c(F)cncc2F)c2nc(N3C[C@@H](O)CC3=O)ccc2c1=O)C(F)(F)F [Example 24, 1-(3,5-Difluoropyridin-4-yl)-7-[(4S)-4-hydroxy-2-oxopyrrolidin-1-yl]-4-oxo-N-[(2S)-1,1,1-trifluorobutan-2-yl]-1,4-dihydro-1,8-naphthyridine-3-carboxamide] | 6.25 | 87 | – |
| CC(C)(NC(=O)c1cn(-c2ncc(F)cc2F)c2nc(N3CCC[C@@H]3CO)ccc2c1=O)C(F)(F)C(F)(F)F [Example 188, 1-(3,5-Difluoropyridin-2-yl)-7-[(2R)-2-(hydroxymethyl)pyrrolidin-1-yl]-4-oxo-N-(3,3,4,4,4-pentafluoro-2-methylbutan-2-yl)-1,4-dihydro-1,8-naphthyridine-3-carboxamide] | 6.93 | 100 | – |
| O=C(NC(c1ccc(F)cc1)C(F)(F)F)c1cn(-c2ncc(F)cc2F)c2nc(N3C[C@@H](O)CC3=O)ccc2c1=O (single isomer, unassigned) [Example 13] | 6.89 | – | 99.50 |
| CC[C@H](NC(=O)c1cn(-c2ncc(F)cc2F)c2nc(N3CCN(CCO)C3=O)ccc2c1=O)C(F)(F)F [Example 119, 1-(3,5-Difluoropyridin-2-yl)-7-[3-(2-hydroxyethyl)-2-oxoimidazolidin-1-yl]-4-oxo-N-[(2S)-1,1,1-trifluorobutan-2-yl]-1,4-dihydro-1,8-naphthyridine-3-carboxamide] | 6.10 | 92 | – |
| O=C(NC(c1ccccc1Cl)C(F)(F)F)c1cn(-c2ncc(F)cc2F)c2nc(N3C[C@@H](O)CC3=O)ccc2c1=O (single isomer, unassigned) [Example 6] | 7.85 | 95 | – |
| CCC(NC(=O)c1cn(-c2ncc(F)cc2F)c2nc(N3C[C@@H](O)CC3=O)ccc2c1=O)C(F)(F)C(F)(F)F (single isomer, unassigned) [Example 94] | 7.49 | – | 100.00 |
| CC[C@H](NC(=O)c1cn(-c2ncc(F)cc2F)c2nc(N3CCCN(CCO)C3=O)ccc2c1=O)C(F)(F)F [Example 120, 1-(3,5-Difluoropyridin-2-yl)-7-[3-(2-hydroxyethyl)-2-oxotetrahydropyrimidin-1(2H)-yl]-4-oxo-N-[(2S)-1,1,1-trifluorobutan-2-yl]-1,4-dihydro-1,8-naphthyridine-3-carboxamide] | 6.40 | 100 | – |

Now from value to compound:

| pEC50 | Emax [%] | Efficiency [%] | SMILES |
| --- | --- | --- | --- |
| 6.47 | 96 | – | CC1C(O)C2(CC2)C(=O)N1c1ccc2c(=O)c(C(=O)N[C@@H](C)C(F)(F)F)cn(-c3ncc(F)cc3F)c2n1 (stereo partly drawn) [Example 116, 1-(3,5-Difluoropyridin-2-yl)-7-[7-hydroxy-6-methyl-4-oxo-5-azaspiro[2.4]hept-5-yl]-4-oxo-N-[(2S)-1,1,1-trifluoropropan-2-yl]-1,4-dihydro-1,8-naphthyridine-3-carboxamide] |
| 6.70 | 94.5 | – | O=C(NC(C1CC1)C(F)(F)F)c1cn(-c2ncc(F)cc2F)c2nc(N3CC[C@@H](O)C3=O)ccc2c1=O (stereo partly drawn) [Example 26, N-[1-Cyclopropyl-2,2,2-trifluoroethyl]-1-(3,5-difluoropyridin-2-yl)-7-[(3R)-3-hydroxy-2-oxopyrrolidin-1-yl]-4-oxo-1,4-dihydro-1,8-naphthyridine-3-carboxamide] |
| 7.42 | 100 | – | CC(C)(C)[C@H](NC(=O)c1cn(-c2ncc(F)cc2F)c2nc(N3C[C@@H](O)[C@H](O)C3)ccc2c1=O)C(F)(F)F [Example 99, 1-(3,5-Difluoropyridin-2-yl)-7-[(3R,4R)-3,4-dihydroxypyrrolidin-1-yl]-4-oxo-N-[(2S)-1,1,1-trifluoro-3,3-dimethylbutan-2-yl]-1,4-dihydro-1,8-naphthyridine-3-carboxamide] |
| 7.05 | 90 | – | CC[C@H](NC(=O)c1cn(-c2ncc(F)cc2F)c2nc(N3C[C@@H](C)NC3=O)ccc2c1=O)C(F)(F)F [Example 143, 1-(3,5-difluoropyridin-2-yl)-7-[(4R)-4-methyl-2-oxoimidazolidin-1-yl]-4-oxo-N-[(2S)-1,1,1-trifluorobutan-2-yl]-1,4-dihydro-1,8-naphthyridine-3-carboxamide] |
| 7.01 | – | 98.00 | CC1C(=O)N(c2ccc3c(=O)c(C(=O)N[C@@H](C4CC4)C(F)(F)F)cn(-c4ncc(F)cc4F)c3n2)CC1O (single isomer, unassigned) [Example 107] |
| 5.65 | 86 | – | CC1(NC(=O)c2cn(-c3ncc(F)cc3F)c3nc(N4C[C@@H](O)[C@H](O)C4)ccc3c2=O)CC(F)(F)C1 [Example 170, N-(3,3-Difluoro-1-methylcyclobutyl)-1-(3,5-difluoropyridin-2-yl)-7-[(3R,4R)-3,4-dihydroxypyrrolidin-1-yl]-4-oxo-1,4-dihydro-1,8-naphthyridine-3-carboxamide] |
| 8.00 | 94 | – | O=C(NC(C(F)(F)F)C(F)(F)F)c1cn(-c2ncc(F)cc2F)c2nc(N3CC4CC4(O)C3)ccc2c1=O (racemic) [Example 57, 1-(3,5-Difluoropyridin-2-yl)-N-(1,1,1,3,3,3-hexafluoropropan-2-yl)-7-[1-hydroxy-3-azabicyclo[3.1.0]hex-3-yl]-4-oxo-1,4-dihydro-1,8-naphthyridine-3-carboxamide] |
| 6.44 | 97.5 | – | CC[C@@H](NC(=O)c1cn(-c2ncc(F)cc2F)c2nc(N3CCOCC3)ccc2c1=O)C(F)(F)F [Example 71, 1-(3,5-Difluoropyridin-2-yl)-7-(morpholin-4-yl)-4-oxo-N-[(2R)-1,1,1-trifluorobutan-2-yl]-1,4-dihydro-1,8-naphthyridine-3-carbonxamide] |
| 7.59 | 100 | – | CCC(NC(=O)c1cn(-c2ncc(F)cc2F)c2nc(N3C[C@@H](O)[C@H](O)C3)ccc2c1=O)C(F)(F)C(F)(F)F (mixture of isomers) [Example 95, 1-(3,5-Difluoropyridin-2-yl)-7-[(3R,4R)-3,4-dihydroxypyrrolidin-1-yl]-4-oxo-N-[1,1,1,2,2-pentafluoropentan-3-yl]-1,4-dihydro-1,8-naphthyridine-3-carboxamide] |
| 7.96 | 96 | – | O=C(NC(C(F)(F)F)C(F)(F)F)c1cn(-c2ncc(F)cc2F)c2nc(N3CC4CC4(O)C3)ccc2c1=O (single isomer, unassigned) [Example 58, 1-(3,5-Difluoropyridin-2-yl)-N-(1,1,1,3,3,3-hexafluoropropan-2-yl)-7-[1-hydroxy-3-azabicyclo[3.1.0]hex-3-yl]-4-oxo-1,4-dihydro-1,8-naphthyridine-3-carboxamide] |
| 7.14 | 97 | – | CC(C)(C)[C@H](NC(=O)c1cn(-c2ncc(F)cc2F)c2nc(N3CCCN(CCO)C3=O)ccc2c1=O)C(F)(F)F [Example 125, 1-(3,5-Difluoropyridin-2-yl)-7-[3-(2-hydroxyethyl)-2-oxotetrahydropyrimidin-1(2H)-yl]-4-oxo-N-[(2S)-1,1,1-trifluoro-3,3-dimethylbutan-2-yl]-1,4-dihydro-1,8-naphthyridine-3-carboxamide] |
